{
  "source": "ChEMBL document CHEMBL1155531",
  "about": "“Structure guided design of 5-arylindazole glucocorticoid receptor agonists and antagonists” (J Med Chem, 2010)",
  "key": {"Glucocorticoid receptor [1]": {"target": "T1, Glucocorticoid receptor (Homo sapiens, UniProt P04150)", "T1 sequence (P04150 whole entry)": "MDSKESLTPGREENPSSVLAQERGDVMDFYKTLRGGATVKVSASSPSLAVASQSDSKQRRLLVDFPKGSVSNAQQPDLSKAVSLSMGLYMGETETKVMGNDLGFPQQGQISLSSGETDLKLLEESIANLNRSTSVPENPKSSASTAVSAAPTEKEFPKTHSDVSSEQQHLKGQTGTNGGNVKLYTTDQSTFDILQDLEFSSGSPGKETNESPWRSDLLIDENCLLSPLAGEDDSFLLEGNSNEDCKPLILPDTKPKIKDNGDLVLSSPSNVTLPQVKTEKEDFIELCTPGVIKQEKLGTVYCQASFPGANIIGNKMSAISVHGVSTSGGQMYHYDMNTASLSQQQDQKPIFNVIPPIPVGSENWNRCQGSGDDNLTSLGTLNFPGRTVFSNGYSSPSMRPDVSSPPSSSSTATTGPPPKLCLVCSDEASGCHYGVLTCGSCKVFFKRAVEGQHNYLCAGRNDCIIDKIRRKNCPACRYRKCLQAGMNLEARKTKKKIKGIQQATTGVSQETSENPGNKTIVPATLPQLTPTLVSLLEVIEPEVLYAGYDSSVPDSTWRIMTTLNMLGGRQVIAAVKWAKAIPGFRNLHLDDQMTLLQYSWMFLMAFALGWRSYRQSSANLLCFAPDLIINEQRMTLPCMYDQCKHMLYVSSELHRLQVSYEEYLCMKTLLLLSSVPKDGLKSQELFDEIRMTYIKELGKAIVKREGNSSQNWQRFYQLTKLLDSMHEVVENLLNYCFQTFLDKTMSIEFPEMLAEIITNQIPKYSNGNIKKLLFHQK", "assay": "Displacement of fluorescent-labeled Dexamethasone from GR by fluorescent polarization assay"}, "Glucocorticoid receptor [2]": {"target": "T1, Glucocorticoid receptor", "assay": "Activity at GR in human A549 cells by NF-kappaB transrepression assay", "type": "cell-based"}, "[3]": {"assay": "Toxicity in human skeletal muscle cells assessed as increase in glutamine synthase mRNA level after 18 hrs by PCR"}, "Hepatocyte": {"test_system": "Hepatocyte", "assay": "Toxicity in human hepatocytes assessed as increase in PEPCK mRNA level after 18 hrs by PCR", "type": "cell-based"}, "[4]": {"assay": "Volume of distribution at steady state in CD rat at 1 mg/kg, po and 1 mg/kg, iv", "type": "ADME, organism-based", "conditions": "in vivo, read-out: Vdss"}, "[5]": {"assay": "Elimination half life in CD rat at 1 mg/kg, po and 1 mg/kg, iv", "type": "ADME, organism-based", "conditions": "in vivo, read-out: beta t1/2 (converted)"}, "[6]": {"assay": "Oral bioavailability in CD rat at 1 mg/kg", "type": "ADME, organism-based", "conditions": "in vivo"}, "[7]": {"assay": "Plasma clearance in DBA1 mouse at 1 mg/kg, po and 1 mg/kg, iv", "type": "ADME, organism-based"}, "[8]": {"assay": "Volume of distribution at steady state in DBA1 mouse at 1 mg/kg, po and 1 mg/kg, iv", "type": "ADME, organism-based", "conditions": "in vivo, read-out: Vdss"}, "[9]": {"assay": "Tmax in CD rat at 1 mg/kg, po", "type": "ADME, organism-based", "design": "dose 1 mg/kg, route oral", "conditions": "in vivo"}, "[10]": {"assay": "Tmax in DBA1 mouse at 1 mg/kg, po", "type": "ADME, organism-based", "design": "dose 1 mg/kg, route oral", "conditions": "in vivo"}, "[11]": {"assay": "Plasma concentration in mouse bearing mouse NIH-3T3 cells integrated with MMTV reporter gene at 10 mg/kg, po after 1 hr", "type": "ADME, organism-based, NIH3T3", "design": "dose 10 mg/kg, route oral"}, "[12]": {"assay": "Relative plasma concentration in mouse assessed as ratio of plasma concentration in mouse at 10 mg/kg, po to IC50 for NF-kappaB transrepression activity in A549 cells expressing MMTV reporter gene", "type": "ADME, organism-based", "design": "dose 10 mg/kg, route oral", "conditions": "in vivo"}, "[13]": {"assay": "Relative fraction unbound in mouse assessed as ratio of fraction unbound in mouse at 10 mg/kg, po to IC50 for NF-kappaB transrepression activity in A549 cells expressing MMTV reporter gene", "type": "ADME, organism-based", "design": "dose 10 mg/kg, route oral", "conditions": "in vivo"}, "[14]": {"assay": "Plasma concentration in mouse bearing mouse NIH-3T3 cells integrated with MMTV reporter gene at 1 mg/kg, po after 1 hr", "type": "ADME, organism-based, NIH3T3", "design": "dose 1 mg/kg, route oral"}, "[15]": {"assay": "Relative plasma concentration in mouse assessed as ratio of plasma concentration in mouse at 1 mg/kg, po to IC50 for NF-kappaB transrepression activity in A549 cells expressing MMTV reporter gene", "type": "ADME, organism-based", "design": "dose 1 mg/kg, route oral", "conditions": "in vivo"}, "[16]": {"assay": "Relative fraction unbound in mouse assessed as ratio of fraction unbound in mouse at 1 mg/kg, po to IC50 for NF-kappaB transrepression activity in A549 cells expressing MMTV reporter gene", "type": "ADME, organism-based", "design": "dose 1 mg/kg, route oral", "conditions": "in vivo"}, "[17]": {"assay": "Plasma concentration in mouse bearing mouse NIH-3T3 cells integrated with MMTV reporter gene at 0.1 mg/kg, po after 1 hr", "type": "ADME, organism-based, NIH3T3", "design": "dose 0.1 mg/kg, route oral"}, "[18]": {"assay": "Relative fraction unbound in mouse assessed as ratio of fraction unbound in mouse at 0.1 mg/kg, po to IC50 for NF-kappaB transrepression activity in A549 cells expressing MMTV reporter gene", "type": "ADME, organism-based", "design": "dose 0.1 mg/kg, route oral", "conditions": "in vivo"}, "[19]": {"assay": "Plasma concentration in mouse bearing mouse NIH-3T3 cells integrated with MMTV reporter gene at 100 mg/kg, po after 1 hr", "type": "ADME, organism-based, NIH3T3", "design": "dose 100 mg/kg, route oral"}, "Mus musculus [20]": {"test_system": "Mus musculus", "assay": "Inhibition of IL1-induced circulating IL6 release in mouse at 10 mg/kg, po", "type": "functional"}, "Mus musculus [21]": {"test_system": "Mus musculus", "assay": "Inhibition of IL1-induced circulating IL6 release in mouse at 100 mg/kg, po", "type": "functional"}, "Androgen receptor": {"target": "T2, Androgen receptor (Homo sapiens, UniProt P10275)", "T2 sequence (P10275 whole entry)": "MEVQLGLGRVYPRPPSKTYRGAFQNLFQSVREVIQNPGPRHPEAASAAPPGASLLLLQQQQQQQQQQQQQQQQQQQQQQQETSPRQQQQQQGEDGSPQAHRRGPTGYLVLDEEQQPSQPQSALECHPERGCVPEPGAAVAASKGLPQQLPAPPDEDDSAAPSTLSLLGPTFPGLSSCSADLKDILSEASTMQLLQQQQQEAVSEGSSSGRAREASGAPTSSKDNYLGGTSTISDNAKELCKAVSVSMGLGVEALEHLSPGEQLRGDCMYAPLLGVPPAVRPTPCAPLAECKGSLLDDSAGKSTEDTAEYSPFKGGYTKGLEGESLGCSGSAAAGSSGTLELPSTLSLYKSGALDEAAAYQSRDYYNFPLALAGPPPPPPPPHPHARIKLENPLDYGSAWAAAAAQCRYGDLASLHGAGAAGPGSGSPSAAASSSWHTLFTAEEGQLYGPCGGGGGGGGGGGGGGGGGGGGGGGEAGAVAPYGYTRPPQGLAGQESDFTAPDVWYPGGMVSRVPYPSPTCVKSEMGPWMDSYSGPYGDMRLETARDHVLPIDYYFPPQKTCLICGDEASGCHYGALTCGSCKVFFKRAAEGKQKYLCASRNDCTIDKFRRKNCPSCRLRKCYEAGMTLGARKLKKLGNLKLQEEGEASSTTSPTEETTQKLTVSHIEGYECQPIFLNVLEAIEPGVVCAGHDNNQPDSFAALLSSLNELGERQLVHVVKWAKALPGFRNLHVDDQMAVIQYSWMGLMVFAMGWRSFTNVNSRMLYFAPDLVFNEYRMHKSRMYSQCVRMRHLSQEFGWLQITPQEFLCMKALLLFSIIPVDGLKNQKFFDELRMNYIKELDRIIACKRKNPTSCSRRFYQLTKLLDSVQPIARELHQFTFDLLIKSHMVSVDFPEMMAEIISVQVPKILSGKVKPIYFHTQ"}},
  "data": [
    {"smiles": "O=S(=O)(Cc1ccccc1)Nc1ccc(-c2ccc3c(cnn3-c3ccc(F)cc3)c2)c(C(F)(F)F)c1", "values": [
      {"measurement": "IC50", "setting": "Glucocorticoid receptor [1]", "value": 10, "unit": "nM"},
      {"measurement": "IC50", "setting": "Glucocorticoid receptor [2]", "value": 10, "unit": "nM"},
      {"measurement": "Activity", "setting": "[3]", "value": "Toxic"},
      {"measurement": "Activity", "setting": "Hepatocyte", "value": "Toxic"},
      {"measurement": "Vd", "setting": "[4]", "value": 2, "unit": "L/kg"},
      {"measurement": "half-life", "setting": "[5]", "value": 3.3, "unit": "h"},
      {"measurement": "bioavailability", "setting": "[6]", "value": "> 22", "unit": "%"},
      {"measurement": "clearance", "setting": "[7]", "value": 8, "unit": "mL/min/kg"},
      {"measurement": "Vd", "setting": "[8]", "value": 1.8, "unit": "L/kg"},
      {"measurement": "Tmax", "setting": "[9]", "value": 6, "unit": "h"},
      {"measurement": "Tmax", "setting": "[10]", "value": 6, "unit": "h"},
      {"measurement": "concentration at 1 h", "setting": "[11]", "value": 2730, "unit": "nM"},
      {"measurement": "fold change (FC)", "setting": "[12]", "value": 273},
      {"measurement": "fold change (FC)", "setting": "[13]", "value": 0.5},
      {"measurement": "concentration at 1 h", "setting": "[14]", "value": 290, "unit": "nM"},
      {"measurement": "fold change (FC)", "setting": "[15]", "value": 29},
      {"measurement": "fold change (FC)", "setting": "[16]", "value": 0.06},
      {"measurement": "concentration at 1 h", "setting": "[17]", "value": 25, "unit": "nM"},
      {"measurement": "fold change (FC)", "setting": "[18]", "value": 0.005},
      {"measurement": "concentration at 1 h", "setting": "[19]", "value": 12100, "unit": "nM"},
      {"measurement": "inhibition in vivo at 10 mg/kg", "setting": "Mus musculus [20]", "value": 44, "unit": "%"},
      {"measurement": "inhibition in vivo at 100 mg/kg", "setting": "Mus musculus [21]", "value": 57, "unit": "%"},
      {"measurement": "IC50", "setting": "Androgen receptor", "value": "> 10000", "unit": "nM"}
    ]}
  ]
}
